These compounds were tested against T1, Cytochrome P450 2D6 (Homo sapiens, UniProt P10635) (assay: Inhibition of CYP2D6 (unknown origin) using bufuralol substrate). Settings: not given.
Format: ADME

T1 sequence (P10635 whole entry): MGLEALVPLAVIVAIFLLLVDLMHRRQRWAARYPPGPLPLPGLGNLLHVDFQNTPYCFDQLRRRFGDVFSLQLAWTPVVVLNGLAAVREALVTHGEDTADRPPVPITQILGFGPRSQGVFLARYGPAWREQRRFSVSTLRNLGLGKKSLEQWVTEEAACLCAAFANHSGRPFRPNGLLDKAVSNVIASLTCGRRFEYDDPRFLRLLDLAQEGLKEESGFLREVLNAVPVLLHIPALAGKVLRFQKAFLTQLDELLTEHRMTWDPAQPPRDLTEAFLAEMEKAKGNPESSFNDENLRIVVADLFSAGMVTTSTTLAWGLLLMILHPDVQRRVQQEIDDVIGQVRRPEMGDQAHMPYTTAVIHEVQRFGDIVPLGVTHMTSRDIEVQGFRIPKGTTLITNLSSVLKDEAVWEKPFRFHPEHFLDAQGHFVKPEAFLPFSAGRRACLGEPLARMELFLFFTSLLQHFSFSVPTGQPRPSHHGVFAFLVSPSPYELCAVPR

| IC50 [nM] | SMILES |
| --- | --- |
| 260 | O=S(=O)(Nc1ncns1)c1cc(F)c(OC[C@H]2CNCC[C@@H]2c2ccc(Cl)cc2)cc1F |
| > 10000 | O=S(=O)(Nc1ncc(F)cn1)c1cc(F)c(OC[C@H]2CNCC[C@@H]2c2ccc(Cl)cc2)cc1F |

| SMILES | IC50 [nM] |
| --- | --- |
| CN1CC[C@H](c2ccc(Cl)cc2)[C@@H](COc2cc(F)c(S(=O)(=O)Nc3ncns3)cc2F)C1 | 270 |

The compounds below were run against T1, Cytochrome P450 2D6 (assay: (§1) Inhibition of CYP2D6 (unknown origin) using bufuralol substrate at 10 uM). Settings: 10 µM.
Format: ADME

| SMILES | inhibition (INH) [%] |
| --- | --- |
| CN1CC[C@@H](c2ccc(Cl)cc2)[C@H](COc2cc(F)c(S(=O)(=O)Nc3ncns3)cc2F)C1 (relative stereo) | 93 |
| CN1CC[C@@H](c2ccc(Cl)cc2)[C@H](COc2cc(F)c(S(=O)(=O)Nc3ncns3)cc2F)C1 | 69 |
| O=S(=O)(Nc1ncns1)c1cc(F)c(OC[C@@H]2CNCC[C@H]2c2ccc(Cl)cc2)cc1F | 82 |

What follows are compounds tested against CYP2D6 (Homo sapiens, UniProt P10635) (assay: as §1). Settings: probe bufuralol.
Format: ADME

CYP2D6, sequence (P10635 whole entry): as above

| SMILES | inhibition at 10 µM [%] |
| --- | --- |
| O=S(=O)(Nc1ncns1)c1cc(F)c(OC[C@@H]2CNC[C@H]2c2ccc(Cl)cc2)cc1F (relative stereo) | 97 |
| O=S(=O)(Nc1ncns1)c1cc(F)c(OC[C@@H]2CNCC[C@H]2c2ccc(Cl)cc2)cc1F (racemic) | 93 |

The compounds below were run against Sodium channel protein type 5 subunit alpha (Homo sapiens, UniProt Q14524) (assay: Inhibition of human Nav1.5 expressed in HEK cells assessed as reduction in sodium current at -60 mV holding potential by PatchXpress platform based whole cell patch clamp electrophysiological assay). Settings: not given.
Design: species or system HEK293

| SMILES | IC50 [nM] |
| --- | --- |
| CN1CC[C@@H](c2ccc(Cl)cc2)[C@H](COc2cc(F)c(S(=O)(=O)Nc3ncns3)cc2F)C1 (relative stereo) | > 10000 |
| CN1CC[C@H](c2ccc(Cl)cc2)[C@@H](COc2cc(F)c(S(=O)(=O)Nc3ncns3)cc2F)C1 | > 10000 |
| O=S(=O)(Nc1ncc(F)cn1)c1cc(F)c(OC[C@H]2CNCC[C@@H]2c2ccc(Cl)cc2)cc1F | > 10000 |

Same assay, conditions: hek293

| SMILES | IC50 [nM] |
| --- | --- |
| CN1CC[C@@H](c2ccc(Cl)cc2)[C@H](COc2cc(F)c(S(=O)(=O)Nc3ncns3)cc2F)C1 | > 10000 |

The compounds below were run against T2, Cytochrome P450 3A4 (Homo sapiens, UniProt P08684) (assay: Inhibition of CYP3A4 (unknown origin) using midazolam substrate). Settings: not given.
Format: ADME

T2 sequence (P08684 whole entry): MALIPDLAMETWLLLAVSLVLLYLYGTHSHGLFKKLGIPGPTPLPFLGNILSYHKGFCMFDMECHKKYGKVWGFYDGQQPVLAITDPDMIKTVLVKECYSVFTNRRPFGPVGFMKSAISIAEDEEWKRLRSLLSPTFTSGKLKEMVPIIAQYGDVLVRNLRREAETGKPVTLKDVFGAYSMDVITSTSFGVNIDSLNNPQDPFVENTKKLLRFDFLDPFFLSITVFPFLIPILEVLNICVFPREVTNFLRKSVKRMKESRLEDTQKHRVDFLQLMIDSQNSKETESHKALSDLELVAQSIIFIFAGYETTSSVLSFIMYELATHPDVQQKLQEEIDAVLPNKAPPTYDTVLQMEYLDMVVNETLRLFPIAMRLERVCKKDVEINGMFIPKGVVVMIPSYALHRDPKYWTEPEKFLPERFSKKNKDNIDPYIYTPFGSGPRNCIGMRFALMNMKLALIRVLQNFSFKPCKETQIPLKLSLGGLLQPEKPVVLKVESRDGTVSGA

| IC50 [nM] | SMILES |
| --- | --- |
| 150 | O=S(=O)(Nc1ncns1)c1cc(F)c(OC[C@H]2CNCC[C@@H]2c2ccc(Cl)cc2)cc1F |
| > 10000 | O=S(=O)(Nc1ncc(F)cn1)c1cc(F)c(OC[C@H]2CNCC[C@@H]2c2ccc(Cl)cc2)cc1F |

| SMILES | IC50 [nM] |
| --- | --- |
| CN1CC[C@H](c2ccc(Cl)cc2)[C@@H](COc2cc(F)c(S(=O)(=O)Nc3ncns3)cc2F)C1 | 140 |

Each compound was assayed against Sodium channel protein type 9 subunit alpha (Homo sapiens, UniProt Q15858) (assay: Inhibition of human Nav1.7 expressed in HEK cells assessed as reduction in sodium current at -60 mV holding potential by PatchXpress platform based whole cell patch clamp electrophysiological assay). Settings: not given.
Design: species or system HEK293

Sodium channel protein type 9 subunit alpha, sequence (Q15858 whole entry): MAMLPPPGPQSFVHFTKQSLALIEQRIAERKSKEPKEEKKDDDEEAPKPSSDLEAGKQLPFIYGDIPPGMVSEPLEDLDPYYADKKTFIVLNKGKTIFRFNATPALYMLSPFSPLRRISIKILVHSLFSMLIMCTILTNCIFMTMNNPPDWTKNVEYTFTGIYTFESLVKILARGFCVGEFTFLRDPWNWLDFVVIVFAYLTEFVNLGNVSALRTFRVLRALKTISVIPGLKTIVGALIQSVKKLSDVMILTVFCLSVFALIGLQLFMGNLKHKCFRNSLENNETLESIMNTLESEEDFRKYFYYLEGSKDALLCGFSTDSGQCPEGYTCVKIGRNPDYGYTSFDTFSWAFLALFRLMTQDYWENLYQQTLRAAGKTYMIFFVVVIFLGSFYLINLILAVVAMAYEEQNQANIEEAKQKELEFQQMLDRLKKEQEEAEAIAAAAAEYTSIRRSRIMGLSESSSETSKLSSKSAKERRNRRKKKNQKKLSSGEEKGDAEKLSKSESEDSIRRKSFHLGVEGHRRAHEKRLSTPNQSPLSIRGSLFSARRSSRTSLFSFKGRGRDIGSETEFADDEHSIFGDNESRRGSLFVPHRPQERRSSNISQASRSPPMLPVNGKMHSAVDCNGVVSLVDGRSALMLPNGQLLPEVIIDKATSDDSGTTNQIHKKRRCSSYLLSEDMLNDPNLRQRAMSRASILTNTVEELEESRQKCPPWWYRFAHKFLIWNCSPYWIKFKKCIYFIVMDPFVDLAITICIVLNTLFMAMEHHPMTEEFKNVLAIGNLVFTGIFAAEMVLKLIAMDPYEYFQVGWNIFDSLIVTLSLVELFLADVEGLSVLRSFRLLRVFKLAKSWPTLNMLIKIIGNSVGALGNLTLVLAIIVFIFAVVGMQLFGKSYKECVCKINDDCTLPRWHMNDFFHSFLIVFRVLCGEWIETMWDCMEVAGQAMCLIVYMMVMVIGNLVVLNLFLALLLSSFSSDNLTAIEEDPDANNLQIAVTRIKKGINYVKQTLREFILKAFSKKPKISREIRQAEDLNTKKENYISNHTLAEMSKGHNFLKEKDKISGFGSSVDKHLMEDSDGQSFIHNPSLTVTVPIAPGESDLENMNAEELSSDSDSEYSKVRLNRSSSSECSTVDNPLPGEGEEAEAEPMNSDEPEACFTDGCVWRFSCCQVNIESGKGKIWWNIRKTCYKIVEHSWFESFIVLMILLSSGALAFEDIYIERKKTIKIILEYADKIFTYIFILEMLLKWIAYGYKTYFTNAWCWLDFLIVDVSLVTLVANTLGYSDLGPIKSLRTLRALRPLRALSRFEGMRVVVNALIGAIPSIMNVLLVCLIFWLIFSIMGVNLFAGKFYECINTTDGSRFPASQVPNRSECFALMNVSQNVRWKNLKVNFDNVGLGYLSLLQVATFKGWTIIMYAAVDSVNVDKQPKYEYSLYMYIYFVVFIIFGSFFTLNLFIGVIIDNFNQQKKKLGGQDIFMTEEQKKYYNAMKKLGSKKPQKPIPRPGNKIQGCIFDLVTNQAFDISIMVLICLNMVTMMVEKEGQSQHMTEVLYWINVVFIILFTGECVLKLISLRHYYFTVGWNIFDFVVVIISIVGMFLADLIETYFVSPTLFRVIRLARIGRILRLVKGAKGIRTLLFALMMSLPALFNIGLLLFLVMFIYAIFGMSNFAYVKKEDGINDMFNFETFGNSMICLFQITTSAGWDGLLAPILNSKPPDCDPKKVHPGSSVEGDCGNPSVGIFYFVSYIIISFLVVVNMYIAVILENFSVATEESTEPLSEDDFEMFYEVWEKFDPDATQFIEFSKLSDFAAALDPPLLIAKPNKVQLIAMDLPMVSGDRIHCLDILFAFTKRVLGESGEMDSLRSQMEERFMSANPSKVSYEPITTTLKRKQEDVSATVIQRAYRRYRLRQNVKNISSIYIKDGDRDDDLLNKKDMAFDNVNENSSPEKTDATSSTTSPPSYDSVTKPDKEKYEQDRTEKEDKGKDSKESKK

| SMILES | IC50 [nM] |
| --- | --- |
| O=S(=O)(Nc1ncns1)c1cc(F)c(OC[C@@H]2CNC[C@H]2c2ccc(Cl)cc2)cc1F (relative stereo) | 50 |
| CN1CC[C@@H](c2ccc(Cl)cc2)[C@H](COc2cc(F)c(S(=O)(=O)Nc3ncns3)cc2F)C1 (relative stereo) | 11 |
| CN1CC[C@H](c2ccc(Cl)cc2)[C@@H](COc2cc(F)c(S(=O)(=O)Nc3ncns3)cc2F)C1 | 4 |
| O=S(=O)(Nc1ncns1)c1cc(F)c(OC[C@@H]2CNCC[C@H]2c2ccc(Cl)cc2)cc1F | 59 |

These compounds were tested against CYP3A4 (Homo sapiens, UniProt P08684) (assay: (§2) Inhibition of CYP3A4 (unknown origin) using midazolam substrate at 10 uM). Settings: probe midazolam.
Format: ADME

CYP3A4, sequence (P08684 whole entry): as the sequence (P08684 whole entry) above

| SMILES | inhibition at 10 µM [%] |
| --- | --- |
| O=S(=O)(Nc1ncns1)c1cc(F)c(OC[C@@H]2CNC[C@H]2c2ccc(Cl)cc2)cc1F (relative stereo) | 93 |
| O=S(=O)(Nc1ncns1)c1cc(F)c(OC[C@@H]2CNCC[C@H]2c2ccc(Cl)cc2)cc1F (racemic) | 94 |
| CN1CC[C@@H](c2ccc(Cl)cc2)[C@H](COc2cc(F)c(S(=O)(=O)Nc3ncns3)cc2F)C1 (relative stereo) | 97 |

The compounds below were run against T2, Cytochrome P450 3A4 (assay: as §2). Settings: 10 µM.
Format: ADME

| SMILES | inhibition (INH) [%] |
| --- | --- |
| CN1CC[C@@H](c2ccc(Cl)cc2)[C@H](COc2cc(F)c(S(=O)(=O)Nc3ncns3)cc2F)C1 | 96 |
| O=S(=O)(Nc1ncns1)c1cc(F)c(OC[C@@H]2CNCC[C@H]2c2ccc(Cl)cc2)cc1F | 96 |

These compounds were tested against T3, Cytochrome P450 2C19 (Homo sapiens, UniProt P33261) (assay: (§3) Inhibition of CYP2C19 (unknown origin) using omeprazole substrate at 10 uM). Settings: 10 µM.
Format: ADME

T3 sequence (P33261 whole entry): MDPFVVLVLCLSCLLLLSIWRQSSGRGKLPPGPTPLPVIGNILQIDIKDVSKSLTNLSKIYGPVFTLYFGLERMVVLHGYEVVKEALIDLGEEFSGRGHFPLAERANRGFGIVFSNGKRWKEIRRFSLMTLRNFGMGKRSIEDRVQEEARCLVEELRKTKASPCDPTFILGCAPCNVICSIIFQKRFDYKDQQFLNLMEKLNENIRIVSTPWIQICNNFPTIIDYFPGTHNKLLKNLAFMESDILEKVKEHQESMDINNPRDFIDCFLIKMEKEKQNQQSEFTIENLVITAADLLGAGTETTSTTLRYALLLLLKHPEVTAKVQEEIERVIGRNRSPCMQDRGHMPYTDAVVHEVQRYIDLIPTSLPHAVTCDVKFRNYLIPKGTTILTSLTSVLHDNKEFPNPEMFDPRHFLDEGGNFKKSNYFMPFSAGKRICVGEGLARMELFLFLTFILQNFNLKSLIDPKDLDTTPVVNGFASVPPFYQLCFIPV

| SMILES | inhibition (INH) [%] |
| --- | --- |
| CN1CC[C@@H](c2ccc(Cl)cc2)[C@H](COc2cc(F)c(S(=O)(=O)Nc3ncns3)cc2F)C1 | 71 |
| O=S(=O)(Nc1ncns1)c1cc(F)c(OC[C@@H]2CNCC[C@H]2c2ccc(Cl)cc2)cc1F | 84 |

Each compound was assayed against CYP2C19 (Homo sapiens, UniProt P33261) (assay: as §3). Settings: probe omeprazole.
Format: ADME

CYP2C19, sequence (P33261 whole entry): as above

| SMILES | inhibition at 10 µM [%] |
| --- | --- |
| O=S(=O)(Nc1ncns1)c1cc(F)c(OC[C@@H]2CNC[C@H]2c2ccc(Cl)cc2)cc1F (relative stereo) | 90 |
| O=S(=O)(Nc1ncns1)c1cc(F)c(OC[C@@H]2CNCC[C@H]2c2ccc(Cl)cc2)cc1F (racemic) | 75 |
| CN1CC[C@@H](c2ccc(Cl)cc2)[C@H](COc2cc(F)c(S(=O)(=O)Nc3ncns3)cc2F)C1 (relative stereo) | 86 |

What follows are compounds tested against T4, Cytochrome P450 2C9 (Homo sapiens, UniProt P11712) (assay: (§4) Inhibition of CYP2C9 (unknown origin) using diclofenac substrate at 10 uM). Settings: 10 µM.
Format: ADME

T4 sequence (P11712 whole entry): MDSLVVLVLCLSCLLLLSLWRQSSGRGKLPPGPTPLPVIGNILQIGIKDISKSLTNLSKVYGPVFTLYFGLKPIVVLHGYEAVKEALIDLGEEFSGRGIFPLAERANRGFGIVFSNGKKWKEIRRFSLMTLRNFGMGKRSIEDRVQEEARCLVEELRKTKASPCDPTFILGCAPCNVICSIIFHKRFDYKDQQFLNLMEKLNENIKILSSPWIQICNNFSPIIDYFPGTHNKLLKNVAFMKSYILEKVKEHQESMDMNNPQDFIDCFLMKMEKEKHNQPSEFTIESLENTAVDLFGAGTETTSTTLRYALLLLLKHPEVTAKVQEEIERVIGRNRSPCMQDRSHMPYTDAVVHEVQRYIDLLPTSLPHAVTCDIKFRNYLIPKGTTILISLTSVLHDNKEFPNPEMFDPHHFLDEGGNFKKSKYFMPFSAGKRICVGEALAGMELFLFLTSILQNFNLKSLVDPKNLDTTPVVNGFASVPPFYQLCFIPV

| SMILES | inhibition (INH) [%] |
| --- | --- |
| CN1CC[C@@H](c2ccc(Cl)cc2)[C@H](COc2cc(F)c(S(=O)(=O)Nc3ncns3)cc2F)C1 | 93 |

These compounds were tested against CYP2C9 (Homo sapiens, UniProt P11712) (assay: as §4). Settings: probe diclofenac.
Format: ADME

CYP2C9, sequence (P11712 whole entry): as above

| SMILES | inhibition at 10 µM [%] |
| --- | --- |
| O=S(=O)(Nc1ncns1)c1cc(F)c(OC[C@@H]2CNC[C@H]2c2ccc(Cl)cc2)cc1F (relative stereo) | 100 |
| O=S(=O)(Nc1ncns1)c1cc(F)c(OC[C@@H]2CNCC[C@H]2c2ccc(Cl)cc2)cc1F (racemic) | 100 |
| CN1CC[C@@H](c2ccc(Cl)cc2)[C@H](COc2cc(F)c(S(=O)(=O)Nc3ncns3)cc2F)C1 (relative stereo) | 97 |

What follows are compounds tested against T4, Cytochrome P450 2C9 (assay: Inhibition of CYP2C9 (unknown origin) using diclofenac substrate). Settings: not given.
Format: ADME

| IC50 [nM] | SMILES |
| --- | --- |
| 630 | O=S(=O)(Nc1ncns1)c1cc(F)c(OC[C@H]2CNCC[C@@H]2c2ccc(Cl)cc2)cc1F |
| > 10000 | O=S(=O)(Nc1ncc(F)cn1)c1cc(F)c(OC[C@H]2CNCC[C@@H]2c2ccc(Cl)cc2)cc1F |

| SMILES | IC50 [nM] |
| --- | --- |
| CN1CC[C@H](c2ccc(Cl)cc2)[C@@H](COc2cc(F)c(S(=O)(=O)Nc3ncns3)cc2F)C1 | 880 |

The compounds below were run against T3, Cytochrome P450 2C19 (assay: Inhibition of CYP2C19 (unknown origin) using omeprazole substrate). Settings: not given.
Format: ADME

| IC50 [nM] | SMILES |
| --- | --- |
| > 10000 | O=S(=O)(Nc1ncns1)c1cc(F)c(OC[C@H]2CNCC[C@@H]2c2ccc(Cl)cc2)cc1F |
| > 10000 | O=S(=O)(Nc1ncc(F)cn1)c1cc(F)c(OC[C@H]2CNCC[C@@H]2c2ccc(Cl)cc2)cc1F |

| SMILES | IC50 [nM] |
| --- | --- |
| CN1CC[C@H](c2ccc(Cl)cc2)[C@@H](COc2cc(F)c(S(=O)(=O)Nc3ncns3)cc2F)C1 | > 10000 |
